Assay results published in PubChem BioAssay AID2060609 (Molecular Pharmacology Branch, DTP, NCI, 2025).
“And” between values parts separate entries of the source, which are not always exact repeats. Equal values may be shown once. Values belong to the compound of their own block, whether it stands above or below them.

System: 855422-203-R-J1-PDC complex spheroids, viability
Experiment: Anticancer human tumor 855422-203-R-J1-PDC patient-derived bladder carcinoma cell line growth inhibition [CLK]
Conditions: for viability, T/C: stronger effect = lower value
Method in brief: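 Multi-cell-type spheroids combined patient-derived tumor cells with HUVEC endothelial cells and human mesenchymal stem cells. Paired agents were dosed in half-log steps down from about clinical Cmax, or from 10 microM where Cmax was unknown.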

[1] = curve of first compound, second compound 0.0316 µM
[2] = curve of first compound, second compound 0.1 µM
[3] = curve of first compound, second compound 0.316 µM
[4] = curve of first compound, second compound 1 µM
[5] = curve of first compound, second compound 3.16 µM
[6] = curve of first compound, second compound 10 µM
[7] = second compound 0.0316 µM, first compound 0.0316 µM
[8] = second compound 0.0316 µM, first compound 0.1 µM
[9] = second compound 0.0316 µM, first compound 0.316 µM
[10] = second compound 0.0316 µM, first compound 1 µM
[11] = second compound 0.0316 µM, first compound 3.16 µM
[12] = second compound 0.0316 µM, first compound 10 µM
[13] = second compound 0.1 µM, first compound 0.0316 µM
[14] = second compound 0.1 µM, first compound 0.1 µM
[15] = second compound 0.1 µM, first compound 0.316 µM
[16] = second compound 0.1 µM, first compound 1 µM
[17] = second compound 0.1 µM, first compound 3.16 µM
[18] = second compound 0.1 µM, first compound 10 µM
[19] = second compound 0.316 µM, first compound 0.0316 µM
[20] = second compound 0.316 µM, first compound 0.1 µM
[21] = second compound 0.316 µM, first compound 0.316 µM
[22] = second compound 0.316 µM, first compound 1 µM
[23] = second compound 0.316 µM, first compound 3.16 µM
[24] = second compound 0.316 µM, first compound 10 µM
[25] = second compound 1 µM, first compound 0.0316 µM
[26] = second compound 1 µM, first compound 0.1 µM
[27] = second compound 1 µM, first compound 0.316 µM
[28] = second compound 1 µM, first compound 1 µM
[29] = second compound 1 µM, first compound 3.16 µM
[30] = second compound 1 µM, first compound 10 µM
[31] = second compound 3.16 µM, first compound 0.0316 µM
[32] = second compound 3.16 µM, first compound 0.1 µM
[33] = second compound 3.16 µM, first compound 0.316 µM
[34] = second compound 3.16 µM, first compound 1 µM
[35] = second compound 3.16 µM, first compound 3.16 µM
[36] = second compound 3.16 µM, first compound 10 µM
[37] = second compound 10 µM, first compound 0.0316 µM
[38] = second compound 10 µM, first compound 0.1 µM
[39] = second compound 10 µM, first compound 0.316 µM
[40] = second compound 10 µM, first compound 1 µM
[41] = second compound 10 µM, first compound 3.16 µM
[42] = second compound 10 µM, first compound 10 µM
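Also: spheroids exposed to drugs for seven days before readout.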
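For viability, T/C in this document: 100% = DMSO vehicle control wells.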

IC50 [1]: 69.3 nM
IC50 [2]: < 9.49 nM
IC50 [3]: < 9.49 nM
IC50 [4]: < 9.49 nM
IC50 [5]: < 9.49 nM
IC50 [6]: < 9.49 nM
SMILES: NC(=O)C(=Cn1cnc(-c2cc(C(F)(F)F)cc(C(F)(F)F)c2)n1)c1cncnc1 + CNC(=O)c1ccc(Nc2nc(OC3CCCC3)c3c(-c4ccc5nc(C)oc5c4)c[nH]c3n2)c(OC)c1
viability, T/C (second compound 0.0316 µM, first compound 0.00949 µM): 123%
viability, T/C (second compound 0.0316 µM, first compound 0.03 µM): 150%
viability, T/C (second compound 0.0316 µM, first compound 0.0949 µM): 17.6%
viability, T/C (second compound 0.0316 µM, first compound 0.3 µM): 10.1%
viability, T/C (second compound 0.0316 µM, first compound 0.949 µM): 9.34%
viability, T/C (second compound 0.0316 µM, first compound 3 µM): 3.87%
viability, T/C (second compound 0.1 µM, first compound 0.00949 µM): 44.8%
viability, T/C (second compound 0.1 µM, first compound 0.03 µM): 50.1%
viability, T/C (second compound 0.1 µM, first compound 0.0949 µM): 12.1%
viability, T/C (second compound 0.1 µM, first compound 0.3 µM): 6.75%
viability, T/C (second compound 0.1 µM, first compound 0.949 µM): 5.9%
viability, T/C (second compound 0.1 µM, first compound 3 µM): 2.36%
viability, T/C (second compound 0.316 µM, first compound 0.00949 µM): 20.1%
viability, T/C (second compound 0.316 µM, first compound 0.03 µM): 13.7%
viability, T/C (second compound 0.316 µM, first compound 0.0949 µM): 12.3%
viability, T/C (second compound 0.316 µM, first compound 0.3 µM): 6.63%
viability, T/C (second compound 0.316 µM, first compound 0.949 µM): 3.98%
viability, T/C (second compound 0.316 µM, first compound 3 µM): 3%
viability, T/C (second compound 1 µM, first compound 0.00949 µM): 18.6%
viability, T/C (second compound 1 µM, first compound 0.03 µM): 10.4%
viability, T/C (second compound 1 µM, first compound 0.0949 µM): 9.1%
viability, T/C (second compound 1 µM, first compound 0.3 µM): 3.59%
viability, T/C (second compound 1 µM, first compound 0.949 µM): 1.47%
viability, T/C (second compound 1 µM, first compound 3 µM): 0.79%
viability, T/C (second compound 3.16 µM, first compound 0.00949 µM): 14.3%
viability, T/C (second compound 3.16 µM, first compound 0.03 µM): 14%
viability, T/C (second compound 3.16 µM, first compound 0.0949 µM): 6.09%
viability, T/C (second compound 3.16 µM, first compound 0.3 µM): 2.12%
viability, T/C (second compound 3.16 µM, first compound 0.949 µM): 1.2%
viability, T/C (second compound 3.16 µM, first compound 3 µM): 1.63%
viability, T/C (second compound 10 µM, first compound 0.00949 µM): 14.7%
viability, T/C (second compound 10 µM, first compound 0.03 µM): 13.1%
viability, T/C (second compound 10 µM, first compound 0.0949 µM): 7.07%
viability, T/C (second compound 10 µM, first compound 0.3 µM): 1.75%
viability, T/C (second compound 10 µM, first compound 0.949 µM): 1.33%
viability, T/C (second compound 10 µM, first compound 3 µM): 0.47%

SMILES: O=c1[nH]cc(F)c(=O)[nH]1 + CN1CCN(c2cc(C(=O)Nc3cc4cc(-c5cnn(C)c5)ccc4cn3)ccn2)CC1
IC50 [1]: 3800 nM
IC50 [2]: 3350 nM
IC50 [3]: < 31.6 nM
IC50 [4]: < 31.6 nM
IC50 [5]: < 31.6 nM
IC50 [6]: < 31.6 nM
viability, T/C [7]: 109%
viability, T/C [8]: 102%
viability, T/C [9]: 96.8%
viability, T/C [10]: 64.4%
viability, T/C [11]: 56.9%
viability, T/C [12]: 41.1%
viability, T/C [13]: 82.2%
viability, T/C [14]: 90.6%
viability, T/C [15]: 85.6%
viability, T/C [16]: 68.1%
viability, T/C [17]: 52.4%
viability, T/C [18]: 39.7%
viability, T/C [19]: 10.1%
viability, T/C [20]: 12.3%
viability, T/C [21]: 9.14%
viability, T/C [22]: 11.6%
viability, T/C [23]: 14.1%
viability, T/C [24]: 6.87%
viability, T/C [25]: 0.14%
viability, T/C [26]: 0.18%
viability, T/C [27]: 0.21%
viability, T/C [28]: 0.12%
viability, T/C [29]: 0.19%
viability, T/C [30]: 0.15%
viability, T/C [31]: 0.72%
viability, T/C [32]: 0.53%
viability, T/C [33]: 0.97%
viability, T/C [34]: 0.5%
viability, T/C [35]: 1.23%
viability, T/C [36]: 0.45%
viability, T/C [37]: 0.21%
viability, T/C [38]: 0.23%
viability, T/C [39]: 0.37%
viability, T/C [40]: 0.21%
viability, T/C [41]: 0.32%
viability, T/C [42]: 0.2%

IC50 (curve of compound): 1940 nM and 2340 nM
SMILES: C=C(F)C(=O)N1CCN(c2nc(OCC3CCCN3C)nc3c2CCN(c2cccc4cccc(Cl)c24)C3)CC1CC#N (configuration not stated)
viability, T/C (compound 0.0316 µM): 94.2% and 121%
viability, T/C (compound 0.1 µM): 111% and 115%
viability, T/C (compound 0.316 µM): 93.3% and 113%
viability, T/C (compound 1 µM): 111% and 123%
viability, T/C (compound 3.16 µM): 11.1% and 26%
viability, T/C (compound 10 µM): 1.51% and 0.48%

IC50 (curve of compound): > 100 nM
SMILES: Cn1ncnc1[C@H]1c2n[nH]c(=O)c3cc(F)cc(c23)N[C@@H]1c1ccc(F)cc1
viability, T/C (compound 0.000316 µM): 105% and 134%
viability, T/C (compound 0.001 µM): 97.5% and 96.9%
viability, T/C (compound 0.00316 µM): 110% and 130%
viability, T/C (compound 0.01 µM): 113% and 102%
viability, T/C (compound 0.0316 µM): 121% and 158%
viability, T/C (compound 0.1 µM): 110% and 141%

SMILES: CCCS(=O)(=O)Nc1ccc(F)c(C(=O)c2c[nH]c3ncc(-c4ccc(Cl)cc4)cc23)c1F + CN1CCN(c2cc(C(=O)Nc3cc4cc(-c5cnn(C)c5)ccc4cn3)ccn2)CC1
IC50 [1]: 4790 nM
IC50 [2]: 5020 nM
IC50 [3]: < 31.6 nM
IC50 [4]: < 31.6 nM
IC50 [5]: < 31.6 nM
IC50 [6]: < 31.6 nM
viability, T/C [7]: 83.9%
viability, T/C [8]: 88.1%
viability, T/C [9]: 103%
viability, T/C [10]: 106%
viability, T/C [11]: 76.5%
viability, T/C [12]: 3.42%
viability, T/C [13]: 74.2%
viability, T/C [14]: 85.5%
viability, T/C [15]: 87.9%
viability, T/C [16]: 86.5%
viability, T/C [17]: 81.8%
viability, T/C [18]: 2.76%
viability, T/C [19]: 6.38%
viability, T/C [20]: 8.19%
viability, T/C [21]: 9.52%
viability, T/C [22]: 7.73%
viability, T/C [23]: 6.35%
viability, T/C [24]: 1.15%
viability, T/C [25]: 0.16%
viability, T/C [26]: 0.18%
viability, T/C [27]: 0.46%
viability, T/C [28]: 0.19%
viability, T/C [29]: 0.19%
viability, T/C [30]: 0.08%
viability, T/C [31]: 0.34%
viability, T/C [32]: 0.68%
viability, T/C [33]: 0.32%
viability, T/C [34]: 0.46%
viability, T/C [35]: 1.09%
viability, T/C [36]: 0.77%
viability, T/C [37]: 0.23%
viability, T/C [38]: 0.51%
viability, T/C [39]: 0.21%
viability, T/C [40]: 0.35%
viability, T/C [41]: 0.5%
viability, T/C [42]: 0.29%

IC50 [1]: < 31.6 nM
IC50 [2]: < 31.6 nM
IC50 [3]: < 31.6 nM
IC50 [4]: < 31.6 nM
IC50 [5]: < 31.6 nM
IC50 [6]: < 31.6 nM
SMILES: CC(=O)O[C@H]1C(=O)[C@@]2(C)[C@H]([C@H](OC(=O)c3ccccc3)[C@]3(O)C[C@H](OC(=O)[C@H](O)[C@@H](NC(=O)c4ccccc4)c4ccccc4)C(C)=C1C3(C)C)[C@]1(OC(C)=O)CO[C@@H]1C[C@@H]2O + CNC(=O)c1ccc(Nc2nc(OC3CCCC3)c3c(-c4ccc5nc(C)oc5c4)c[nH]c3n2)c(OC)c1
viability, T/C [7]: 8.98%
viability, T/C [8]: 6.61%
viability, T/C [9]: 7.27%
viability, T/C [10]: 7.58%
viability, T/C [11]: 8.71%
viability, T/C [12]: 11.3%
viability, T/C [13]: 16.5%
viability, T/C [14]: 11.2%
viability, T/C [15]: 13.8%
viability, T/C [16]: 11.9%
viability, T/C [17]: 15%
viability, T/C [18]: 25.5%
viability, T/C [19]: 30.5%
viability, T/C [20]: 28.8%
viability, T/C [21]: 29.2%
viability, T/C [22]: 31.9%
viability, T/C [23]: 34.4%
viability, T/C [24]: 31.5%
viability, T/C [25]: 32%
viability, T/C [26]: 25.3%
viability, T/C [27]: 28.1%
viability, T/C [28]: 35.5%
viability, T/C [29]: 36.5%
viability, T/C [30]: 27%
viability, T/C [31]: 28.6%
viability, T/C [32]: 28.3%
viability, T/C [33]: 21.7%
viability, T/C [34]: 31.7%
viability, T/C [35]: 31.8%
viability, T/C [36]: 24.2%
viability, T/C [37]: 23.4%
viability, T/C [38]: 33.6%
viability, T/C [39]: 25.5%
viability, T/C [40]: 24.9%
viability, T/C [41]: 31.4%
viability, T/C [42]: 26.3%
